# Entries after “also recorded” stand apart in the source; their conditions may differ.
# Key:
# tail flick response = experiment: radiant heat tail flick analgesia in rats; format: in vivo, rat
# Method: The analgesic properties of the compounds prepared in accordance with Examples III and IV were evaluated in rats using the radiant heat and tail flick paradigm. […] Flick latencies in FIGS. 11-13 were determined at 30 minute intervals through 3.5 h and the data was expressed as a percentage of the maximum possible effect (% MPE). A 15 sec. cut-off latency was used to minimize tissue damage. The values shown are the mean values for 6 rats.
# A 15 sec. cut-off latency was used to prevent tissue damage.
# The analgesic properties of compounds XXII and XXIII were evaluated in rats using the writhing assay and tail flick paradigm. […] The writhing assay which uses a chemical stimulus to produce pain, is believed to be more sensitive to kappa agonist activity than other measures of analgesia which uses a heat stimulus (Dykstra, L.A. Behavioral Pharmacology: The Current Status, N.Y.: Allan R. Liss. Inc. 1985).
# [1] = food intake in 24 hr food-deprived rats; format: in vivo, rat; details: for Food Intake in Grams: Table 3, 24 hr; for Cumulative Food Intake in Grams: Table 4
# Method: (§1) Rats were given water and powdered food ad lib for 8 days until food intake had stabilized, and body weight and food and water intakes were recorded at the same time every day. Animals were assigned to treatment groups matched on the basis of their 24 hr food consumption on the last baseline day, and rats were food deprived for 24 hr immediately before injection of the test compound. […] The compound of Example XII was injected S.C. at doses of 1.15, 2.31, 11.55 and 23.09 μmol/kg, in a volume of 4 ml/kg of 0.3% acetic acid. Controls were injected with the vehicle solutions in the appropriate volumes. Food and water intakes were measured at 1, 3 and 24 hr after treatment. Data for each measure and time point were analyzed by one-way analysis of variance (ANOVA), and post-hoc comparisons were performed using Dunnett's test in order to compare the control mean to each of the treatment means.
# (§2) Rats were given water and powdered food for 8 days, and following this,
# (§3) Testing was performed as described above, and baseline measurements were recorded for 7 days. […] The compound of Example XII was injected at doses of 11.55, 23.09, 46.19 and 92.38 μmol/kg by suspension in a solution of 1:1 DMSO:water in a volume of 3 ml/kg. Food and water intakes were recorded at 1, 2, 4 and 6 h following treatment.
# See Table 3 for experimental details, except that baseline measures were […]
# [2] = water intake in 24 hr food-deprived rats; format: in vivo, rat; details: for effect on water intake: S.C.; for Water Intake: Table 3, 24 hr; for Cumulative Water Intake: Table 5
# Method: as §1, §2, §3
# See Table 3 for experimental details, except that baseline measurements
# writhing response = experiment: animal or person; format: in vivo, mouse; details: Mus musculus; Table 7; read-out: ED50, Acetic Acid Induced Writhing in the Mouse
# [3] = test system: oxymorphonazine (OMZ)-induced analgesia; experiment: antagonism of oxymorphonazine (OMZ)-induced analgesia (tail flick) in rats; format: in vivo, rat
# Method: The compound of Example XII was evaluated for its potency and duration in the antagonism of oxymorphonazine (OMZ)-induced analgesia. […] Data represent the mean SEM of 4-5 animals per group.
# (Cowan A. Trendsin Pharmacology Science, 7:69-72, 1986) With this test the intracerebroventricular administration of bombesin produces a characteristic scratching response.
# [4] = S.C., dose tested (mg/kg): Naltrexone 0.5, Nalmefene 1.0, XI 10.0, XII 2.5, XIII 0.5, XIV 5.0
compound,measurement,setting,value
"CN1CC[C@]23c4c5ccc(O)c4O[C@H]2[C@@H](O)C=C[C@H]3[C@H]1C5 [Morphine, morphine, reference compound]","ED50, tail flick analgesia","tail flick response; S.C., 30 min",4.91 µmol/kg
same,dose producing approximately equal analgesia,"tail flick response; S.C., tail flick, through 3.5 hr",~10.5 µmol/kg
same,"ED50, Antagonism of the Tail-Flick Response in the Rat",tail flick response; Table 7,2.60 mg/kg
same,antagonism of tail-flick response to heat,tail flick response; rat,effectively antagonized the tail-flick response to a heat stimulus in the rat
"O=C1CC[C@@]2(O)[C@H]3Cc4ccc(O)c5c4[C@@]2(CCN3CC2CC2)[C@H]1O5 [Naltrexone, naltrexone]",effect on feeding,"[1]; S.C., 1, 3 and 24 hr, lower dose experiment (FIGS. 22, 23)",14.66 and 29.33 μmol/kg doses of naltrexone inhibited feeding at 3 hr following treatment
same,effect on feeding,"[1]; S.C., higher dose time course experiment, 0-6 hr","at all doses decreased feeling up to 4 hr after administration, and the two lower doses also decreased feeding at 6 hr post treatment"
same,Food Intake in Grams,[1]; S.C. 1.47 μmol/kg,33.0 ± 0.7 Grams
same,Food Intake in Grams,[1]; S.C. 2.93 μmol/kg,33.2 ± 3.0 Grams
same,Food Intake in Grams,[1]; S.C. 14.66 μmol/kg,37.6 ± 4.2 Grams
same,Food Intake in Grams,[1]; S.C. 29.33 μmol/kg,40.7 ± 8.2 Grams
same,Cumulative Food Intake in Grams,"[1]; S.C. 14.66 μmol/kg, 0-1 Hr",3.6 ± 0.5 Grams
same,Cumulative Food Intake in Grams,"[1]; S.C. 14.66 μmol/kg, 0-2 Hr",3.6 ± 0.5 Grams
same,Cumulative Food Intake in Grams,"[1]; S.C. 14.66 μmol/kg, 0-4 Hr",4.0 ± 0.0 Grams
same,Cumulative Food Intake in Grams,"[1]; S.C. 14.66 μmol/kg, 0-6 Hr",5.2 ± 0.6 Grams
same,Cumulative Food Intake in Grams,"[1]; S.C. 29.33 μmol/kg, 0-1 Hr",3.2 ± 0.6 Grams
same,Cumulative Food Intake in Grams,"[1]; S.C. 29.33 μmol/kg, 0-2 Hr",3.2 ± 0.6 Grams
same,Cumulative Food Intake in Grams,"[1]; S.C. 29.33 μmol/kg, 0-4 Hr",4.4 ± 0.5 Grams
same,Cumulative Food Intake in Grams,"[1]; S.C. 29.33 μmol/kg, 0-6 Hr",5.2 ± 0.9 Grams
same,Cumulative Food Intake in Grams,"[1]; S.C. 58.65 μmol/kg, 0-1 Hr",2.8 ± 1.1 Grams
same,Cumulative Food Intake in Grams,"[1]; S.C. 58.65 μmol/kg, 0-2 Hr",2.8 ± 1.1 Grams
same,Cumulative Food Intake in Grams,"[1]; S.C. 58.65 μmol/kg, 0-4 Hr",3.2 ± 0.9 Grams
same,Cumulative Food Intake in Grams,"[1]; S.C. 58.65 μmol/kg, 0-6 Hr",6.4 ± 0.5 Grams
same,Cumulative Food Intake in Grams,"[1]; S.C. 117.30 μmol/kg, 0-1 Hr",3.6 ± 0.8 Grams
same,Cumulative Food Intake in Grams,"[1]; S.C. 117.30 μmol/kg, 0-2 Hr",3.6 ± 0.8 Grams
same,Cumulative Food Intake in Grams,"[1]; S.C. 117.30 μmol/kg, 0-4 Hr",4.8 ± 0.9 Grams
same,Cumulative Food Intake in Grams,"[1]; S.C. 117.30 μmol/kg, 0-6 Hr",7.6 ± 1.3 Grams
same,food intake in 4-6 hr interval,"[1]; food intake/2 hr interval, FIGS. 26 and 27",rats treated with the two highest doses of naltrexone are beginning to resume feeding; also recorded: an increase in food consumption at some doses compared to controls
same,effect on water intake,"[2]; 1 and 3 hr, lower dose experiment (FIGS. 24, 25)",inhibited drinking at all doses tested at the 1 and 3 hr time points
same,effect on water intake,"[2]; 1 and 3 hr, lower dose experiment (FIGS. 24, 25), listed as naltrexone",effectively inhibited drinking at all doses tested during the first three hours after administration
same,effect on water intake,"[2]; higher dose time course experiment, 0-6 hr","significant effects at 0-1 hr, 0-2 hr and 0-4 hr"
same,Water Intake,[2]; S.C. 1.47 μmol/kg,69.0 ± 3.5 mL
same,Water Intake,[2]; S.C. 2.93 μmol/kg,62.4 ± 3.8 mL
same,Water Intake,[2]; S.C. 14.66 μmol/kg,53.4 ± 5.5 mL
same,Water Intake,[2]; S.C. 29.33 μmol/kg,66.0 ± 2.8 mL
same,Cumulative Water Intake,"[2]; S.C. 14.66 μmol/kg, 0-1 Hr",5.2 ± 1.1 mL
same,Cumulative Water Intake,"[2]; S.C. 14.66 μmol/kg, 0-2 Hr",9.2 ± 1.1 mL
same,Cumulative Water Intake,"[2]; S.C. 14.66 μmol/kg, 0-4 Hr",15.2 ± 2.0 mL
same,Cumulative Water Intake,"[2]; S.C. 14.66 μmol/kg, 0-6 Hr",22.8 ± 2.1 mL
same,Cumulative Water Intake,"[2]; S.C. 29.33 μmol/kg, 0-1 Hr",5.2 ± 0.6 mL
same,Cumulative Water Intake,"[2]; S.C. 29.33 μmol/kg, 0-2 Hr",8.4 ± 0.5 mL
same,Cumulative Water Intake,"[2]; S.C. 29.33 μmol/kg, 0-4 Hr",15.2 ± 1.1 mL
same,Cumulative Water Intake,"[2]; S.C. 29.33 μmol/kg, 0-6 Hr",21.6 ± 3.1 mL
same,Cumulative Water Intake,"[2]; S.C. 58.65 μmol/kg, 0-1 Hr",3.6 ± 0.8 mL
same,Cumulative Water Intake,"[2]; S.C. 58.65 μmol/kg, 0-2 Hr",6.8 ± 0.6 mL
same,Cumulative Water Intake,"[2]; S.C. 58.65 μmol/kg, 0-4 Hr",13.2 ± 1.3 mL
same,Cumulative Water Intake,"[2]; S.C. 58.65 μmol/kg, 0-6 Hr",22.4 ± 2.6 mL
same,Cumulative Water Intake,"[2]; S.C. 117.30 μmol/kg, 0-1 Hr",3.6 ± 0.8 mL
same,Cumulative Water Intake,"[2]; S.C. 117.30 μmol/kg, 0-2 Hr",9.2 ± 0.9 mL
same,Cumulative Water Intake,"[2]; S.C. 117.30 μmol/kg, 0-4 Hr",16.0 ± 1.6 mL
same,Cumulative Water Intake,"[2]; S.C. 117.30 μmol/kg, 0-6 Hr",26.8 ± 3.4 mL
same,ED50,writhing response,> 30 mg/kg
same,"time course of antagonism of OMZ-induced analgesia, PO","[3]; PO, naltrexone 26.53 μmol/kg","a trend for progressive loss of the antagonistic effect over 0.5-4.0 hours, although the reversal was not complete by eight hours"
same,ED50,"[3]; Rattus norvegicus, sc, Table 8, S.C., read-out: ED 50, oxymorphonazine antagonism",0.07 mg/kg
same,ED100,"[3]; Rattus norvegicus, sc, Table 8, S.C., read-out: ED 100, oxymorphonazine antagonism",0.62 mg/kg
same,Percent Antagonism at 1 Hr,[3]; [4],98%
same,Percent Antagonism at 1.5 Hr,[3]; [4],76%
same,Percent Antagonism at 2 Hr,[3]; [4],79%
same,Percent Antagonism at 3 Hr,[3]; [4],47%
same,Percent Antagonism at 4 Hr,[3]; [4],30%
same,Percent Antagonism at 6 Hr,[3]; [4],4%
same,Percent Antagonism at 8 Hr,[3]; [4],4%
same,"duration of antagonism of OMZ-induced analgesia, SC","[3]; SC, naltrexone 1.33 μmol/kg, OMZ 19 μmol/kg SC",up to 1 hr

# Source: US4889860A (Nova Pharmaceutical Corporation, priority 1987, dated 1989)
